According to patent publication US20160046618A1, “Cyclopropyl Fused Thiazin-2-Amine Compounds as Beta-Secretase Inhibitors and Methods of Use” (AMGEN INC., priority 2014, published 2016):
Like-named read-outs stand apart in the source and are kept apart here.

Key:
[1] = test system: Aβ40 in conditioned medium of cells stably expressing Amyloid Precursor Protein (APP); assay: In vitro BACE-1 cell-based assay (Aβ40 sandwich ELISA); details: read-out: IC50 IP (μM) BACE1 cell
Outline: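 Aβ40 in supernatants measured by time-resolved fluorescence sandwich ELISA, with pAb40 as capture and biotin-6E10 as detector antibody, each incubated at 4 °C.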

human recombinant BACE2 = human recombinant BACE2 (Homo sapiens (Human), UniProt Q9Y5Z0); assay: In vitro enzymatic BACE2 FRET assay; type: biochemical; details: read-out: IC50 IP (μM) BACE2 enzyme
human recombinant BACE2, sequence (Q9Y5Z0 63-518): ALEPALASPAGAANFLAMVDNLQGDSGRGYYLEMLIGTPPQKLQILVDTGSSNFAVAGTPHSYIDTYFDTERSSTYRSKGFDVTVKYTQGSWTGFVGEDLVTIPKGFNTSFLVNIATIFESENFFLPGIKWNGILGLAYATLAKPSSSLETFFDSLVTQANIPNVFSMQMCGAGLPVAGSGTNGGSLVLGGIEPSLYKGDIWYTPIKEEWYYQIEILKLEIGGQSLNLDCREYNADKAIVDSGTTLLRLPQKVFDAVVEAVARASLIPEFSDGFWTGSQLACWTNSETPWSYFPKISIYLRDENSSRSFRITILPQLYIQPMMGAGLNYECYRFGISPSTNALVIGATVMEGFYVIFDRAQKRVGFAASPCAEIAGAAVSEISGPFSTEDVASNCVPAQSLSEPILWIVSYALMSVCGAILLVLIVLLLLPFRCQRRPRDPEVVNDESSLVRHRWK
Outline: (§1)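 Reactions were initiated by adding 50 nM of a peptide carrying fluorophore and quencher on opposite sides of the cleavage site and ran for one hour. Tris buffer then brought the pH to neutrality, ending the reaction, and fluorescence was measured (488 nm excitation, 590 nm emission).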

Recombinant Cat D = Recombinant Cat D (Homo sapiens (Human), UniProt P07339); assay: In vitro enzymatic Cathepsin D (Cat D) FRET assay; type: biochemical; details: read-out: IC50 IP (μM) CatD
Recombinant Cat D, sequence (P07339 65-412): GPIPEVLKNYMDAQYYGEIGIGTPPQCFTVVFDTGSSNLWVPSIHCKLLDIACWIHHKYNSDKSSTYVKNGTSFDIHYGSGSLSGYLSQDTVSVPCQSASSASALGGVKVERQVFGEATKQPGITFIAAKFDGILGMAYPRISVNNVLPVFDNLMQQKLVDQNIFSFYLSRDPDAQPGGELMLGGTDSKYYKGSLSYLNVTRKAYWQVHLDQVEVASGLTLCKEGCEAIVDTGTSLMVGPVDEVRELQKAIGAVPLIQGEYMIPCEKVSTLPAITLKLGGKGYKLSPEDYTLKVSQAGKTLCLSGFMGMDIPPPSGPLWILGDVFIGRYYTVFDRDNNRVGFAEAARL
Outline: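 Assay pH is 3.5 (0.05 M citrate, 5 mM CHAPS, 10% DMSO final) with Cat D from CHO cells. A 20 nM quenched peptide substrate is cleaved over one hour; the reaction is ended with Tris and read by fluorescence (ex 500, em 580 nm).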

human recombinant BACE1 = human recombinant BACE1 (Homo sapiens (Human), UniProt P56817); assay: In vitro enzymatic BACE1 FRET assay; type: biochemical; details: read-out: IC50 IP (μM) BACE1 enzyme
human recombinant BACE1, sequence (P56817 46-501): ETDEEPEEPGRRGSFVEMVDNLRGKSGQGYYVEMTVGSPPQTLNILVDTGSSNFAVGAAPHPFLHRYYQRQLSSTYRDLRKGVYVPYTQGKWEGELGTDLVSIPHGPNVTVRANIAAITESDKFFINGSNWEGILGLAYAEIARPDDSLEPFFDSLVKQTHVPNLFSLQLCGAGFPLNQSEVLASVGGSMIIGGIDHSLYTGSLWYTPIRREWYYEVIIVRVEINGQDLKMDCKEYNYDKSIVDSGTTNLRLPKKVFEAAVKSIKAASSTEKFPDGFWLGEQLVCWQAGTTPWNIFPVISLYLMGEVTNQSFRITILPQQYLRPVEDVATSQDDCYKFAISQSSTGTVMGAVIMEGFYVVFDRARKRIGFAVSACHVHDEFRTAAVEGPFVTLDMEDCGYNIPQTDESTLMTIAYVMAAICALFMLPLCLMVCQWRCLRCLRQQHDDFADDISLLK
Outline: as §1

Row | IC50 [1] | IC50 (human recombinant BACE2) | IC50 (Recombinant Cat D) | IC50 (human recombinant BACE1) | IC50 ([1]; BACE1 cell-based assay) | IC50 (human recombinant BACE2; BACE2 FRET enzyme assay) | IC50 (Recombinant Cat D; Cathepsin D FRET enzyme assay) | IC50 (human recombinant BACE1; BACE1 FRET enzyme assay) | SMILES
1 | 0.00113 µM | 0.00491 µM | 695 µM | 0.0021 µM | – | – | – | – | CN(C)C(=O)[C@]12C[C@H]1[C@@](C)(c1cc(NC(=O)c3cnc(OCC(F)(F)F)cn3)cc(F)c1F)N=C(N)S2 [Example 926, (1S,5S,6S)-3-amino-5-(2,3-difluoro-5-(((5-(2,2,2-trifluoroethoxy)-2-pyrazinyl)carbonyl)amino)phenyl)-N,N,5-trimethyl-2-thia-4-azabicyclo[4.1.0]hept-3-ene-1-carboxamide]
2 | 0.0142 µM | 0.0384 µM | 669 µM | 0.00303 µM | – | – | – | – | C#CCOc1cnc2c(Nc3ccc(F)c([C@@]4(CF)N=C(N)S[C@H]5C[C@H]54)c3)nccc2n1 [Example 762, N-(3-((1S,5S,6S)-3-amino-5-(fluoromethyl)-2-thia-4-azabicyclo[4.1.0]hept-3-en-5-yl)-4-fluorophenyl)-2-(2-propyn-1-yloxy)pyrido[3,4-b]pyrazin-5-amine]
3 | 0.00543 µM | 0.00394 µM | 547 µM | 0.000864 µM | – | – | – | – | C#CCOc1cnc2c(Nc3ccc(F)c([C@@]4(C)N=C(N)S[C@]5([C@@H](C)O)[C@H]4C5(F)F)c3)nccc2n1 [Example 713, (1R)-1-((1S,5S,6R)-3-amino-7,7-difluoro-5-(2-fluoro-5-((2-(2-propyn-1-yloxy)pyrido[3,4-b]pyrazin-5-yl)amino)phenyl)-5-methyl-2-thia-4-azabicyclo[4.1.0]hept-3-en-1-yl)ethanol]
4 | – | – | – | – | 0.0198 µM | 0.0364 µM | > 400 µM | 0.0228 µM | COc1cnc2c(Nc3cc(F)c(F)c([C@@]4(C)N=C(N)S[C@@]5(CO)C[C@H]54)c3)nccc2c1 [Example 89, ((1S,5S,6S)-3-amino-5-(2,3-difluoro-5-((3-methoxy-1,7-naphthyridin-8-yl)amino)phenyl)-5-methyl-2-thia-4-azabicyclo[4.1.0]hept-3-en-1-yl)methanol]
5 | 0.035 µM | 1.19 µM | > 400 µM | 0.03 µM | – | – | – | – | COC[C@]12C[C@H]1[C@@](C)(c1cc(NC(=O)c3cnc(OCC4(C)COC4)cn3)ccc1F)N=C(N)S2 [Example 1050, N-(3-((1S,5S,6S)-3-amino-1-(methoxymethyl)-5-methyl-2-thia-4-azabicyclo[4.1.0]hept-3-en-5-yl)-4-fluorophenyl)-5-((3-methyl-3-oxetanyl)methoxy)-2-pyrazinecarboxamide]
6 | 0.000709 µM | < 0.00203 µM | 1120 µM | 0.000276 µM | – | – | – | – | CNC(=O)[C@]12C[C@H]1[C@@](C)(c1cc(NC(=O)c3ccc(Cl)cn3)ccc1F)N=C(N)S2 [Example 985, (1S,5S,6S)-3-amino-5-(5-(5-chloropicolinamido)-2-fluorophenyl)-N,5-dimethyl-2-thia-4-azabicyclo[4.1.0]hept-3-ene-1-carboxamide]
7 | 0.00265 µM | < 0.00203 µM | > 400 µM | 0.00101 µM | – | – | – | – | NC(=O)/C=C/[C@]12C[C@H]1[C@@](CF)(c1cc(NC(=O)c3ccc(Cl)cn3)ccc1F)N=C(N)S2 [Example 759, N-(3-((1R,5S,6S)-3-amino-1-((E)-3-amino-3-oxoprop-1-en-1-yl)-5-(fluoromethyl)-2-thia-4-azabicyclo[4.1.0]hept-3-en-5-yl)-4-fluorophenyl)-5-chloropicolinamide]
8 | 0.113 µM | 0.0254 µM | 167 µM | 0.0053 µM | – | – | – | – | COc1cnc2c(Nc3cc(F)c(F)c([C@@]4(C)N=C(N)S[C@@]5(C(F)F)C[C@@H]45)c3)nccc2n1 [Example 895, N-(3-((1S,5S,6S)-3-amino-1-(difluoromethyl)-5-methyl-2-thia-4-azabicyclo[4.1.0]hept-3-en-5-yl)-4,5-difluorophenyl)-2-methoxypyrido[3,4-b]pyrazin-5-amine]
9 | 0.00347 µM | 0.00099 µM | > 400 µM | 0.00161 µM | – | – | – | – | COC[C@]12C[C@H]1[C@@](C)(c1cc(NC(=O)c3ccc(Cl)cn3)cc(C)c1F)N=C(N)S2 [Example 1066, N-(3-((1S,5S,6S)-3-amino-1-(methoxymethyl)-5-methyl-2-thia-4-azabicyclo[4.1.0]hept-3-en-5-yl)-4-fluoro-5-methylphenyl)-5-chloro-2-pyridinecarboxamide]
10 | 2.88 µM | 1.09 µM | 984 µM | 0.177 µM | – | – | – | – | C[C@@H](Oc1cnc2c(Nc3cc(F)c(F)c([C@@]4(C)N=C(N)S[C@@]5(C(F)F)C[C@@H]45)c3)nccc2n1)c1ncco1 [Example 891, N-(3-((1S,5S,6S)-3-amino-1-(difluoromethyl)-5-methyl-2-thia-4-azabicyclo[4.1.0]hept-3-en-5-yl)-4,5-difluorophenyl)-2-((1 R)-1-(1,3-oxazol-2-yl)ethoxy)pyrido[3,4-b]pyrazin-5-amine]
11 | 0.021 µM | 0.48 µM | 297 µM | 0.00565 µM | – | – | – | – | COC[C@H](C)Oc1cnc(C(=O)Nc2ccc(F)c([C@@]3(C)N=C(N)S[C@@]4(C(=O)NC(C)(C)C)C[C@H]43)c2)cn1 [Example 1003, (1S,5S,6S)-3-amino-N-tert-butyl-5-(2-fluoro-5-(((5-((1S)-2-methoxy-1-methylethoxy)-2-pyrazinyl)carbonyl)amino)phenyl)-5-methyl-2-thia-4-azabicyclo[4.1.0]hept-3-ene-1-carboxamide]
12 | 0.0175 µM | 0.0257 µM | 972 µM | 0.000898 µM | – | – | – | – | C[C@]1(c2cc(NC(=O)c3ccc(OCc4ncco4)cn3)cc(F)c2F)N=C(N)S[C@@]2(S(C)(=O)=O)C[C@H]21 [Example 745, N-(3-((1R,5S,6S)-3-amino-5-methyl-1-(methylsulfonyl)-2-thia-4-azabicyclo[4.1.0]hept-3-en-5-yl)-4,5-difluorophenyl)-5-(1,3-oxazol-2-ylmethoxy)-2-pyridinecarboxamide]
13 | 0.00195 µM | < 0.00203 µM | 2070 µM | 0.00156 µM | – | – | – | – | NC1=N[C@](CF)(c2cc(NC(=O)c3ccc(Cl)cn3)ccc2F)[C@@H]2C[C@]2(CCCO)S1 [Example 758, N-(3-((1S,5S,6S)-3-amino-5-(fluoromethyl)-1-(3-hydroxypropyl)-2-thia-4-azabicyclo[4.1.0]hept-3-en-5-yl)-4-fluorophenyl)-5-chloropicolinamide]
14 | 0.02 µM | 0.0326 µM | 91.3 µM | 0.00156 µM | – | – | – | – | Cc1nc(COc2cnc3c(Nc4cc(F)c(F)c([C@@]5(C)N=C(N)S[C@@]6(C(F)F)C[C@@H]56)c4)nccc3n2)co1 [Example 870, N-(3-((1S,5S,6S)-3-amino-1-(difluoromethyl)-5-methyl-2-thia-4-azabicyclo[4.1.0]hept-3-en-5-yl)-4,5-difluorophenyl)-2-((2-methyl-1,3-oxazol-4-yl)methoxy)pyrido[3,4-b]pyrazin-5-amine]
15 | 0.0738 µM | 0.288 µM | 194 µM | 0.00181 µM | – | – | – | – | CC(NC(=O)[C@]12C[C@H]1[C@@](C)(c1cc(NC(=O)c3cnc(OCC(F)(F)F)cn3)ccc1F)N=C(N)S2)C(F)F (stereo partly drawn) [Example 1045, (1S,5S,6S)-3-amino-N-(1,1-difluoropropan-2-yl)-5-(2-fluoro-5-(5-(2,2,2-trifluoroethoxy)pyrazine-2-carboxamido)phenyl)-5-methyl-2-thia-4-azabicyclo[4.1.0]hept-3-ene-1-carboxamide]
16 | 0.0132 µM | 0.0355 µM | 380 µM | 0.0141 µM | – | – | – | – | CC(=O)[C@]12C[C@H]1[C@@](C)(c1cc(Nc3ncnc4cc(C#N)cnc34)cc(F)c1F)N=C(N)S2 [Example 904, 4-((3-((1S,5S,6S)-1-acetyl-3-amino-5-methyl-2-thia-4-azabicyclo[4.1.0]hept-3-en-5-yl)-4,5-difluorophenyl)amino)pyrido[3,2-d]pyrimidine-7-carbonitrile]
17 | 0.00431 µM | < 0.00203 µM | 282 µM | 0.00169 µM | – | – | – | – | N#CCC[C@]12C[C@H]1[C@@](CF)(c1cc(NC(=O)c3ccc(Cl)cn3)ccc1F)N=C(N)S2 [Example 723, N-(3-((1S,5S,6S)-3-amino-1-(2-cyanoethyl)-5-(fluoromethyl)-2-thia-4-azabicyclo[4.1.0]hept-3-en-5-yl)-4-fluorophenyl)-5-chloro-2-pyridinecarboxamide]
18 | 0.000495 µM | 0.0162 µM | 60.4 µM | 0.000319 µM | – | – | – | – | C#CCOc1cnc(C(=O)Nc2ccc(F)c([C@@]3(C)N=C(N)S[C@@]4(C(F)F)C[C@@H]34)c2)cn1 [Example 820, N-(3-((1S,5S,6S)-3-amino-1-(difluoromethyl)-5-methyl-2-thia-4-azabicyclo[4.1.0]hept-3-en-5-yl)-4-fluorophenyl)-5-(2-propyn-1-yloxy)-2-pyrazinecarboxamide]
